“And” between values parts separate entries of the source, which are not always exact repeats. Identical values can stand only once.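 Method: 48-hour compound exposure of cells in 96-well plates, five concentrations, linear interpolation of endpoints. The concentration for 50% growth inhibition is given as GI50. TGI is the concentration that stops growth completely.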
System: MDA-MB-468 breast
Assay: inhibition of tumour cell growth, NCI panel, 48 h

Row | SMILES | GI50 | TGI
1 | Cc1ccc2c(n1)C(=O)C(Cl)=C(Nc1ccc(C)c(C)c1)C2=O | 0.317 µM | 1.34 µM
2 | Cc1cnc(NC(=O)Nc2cc(Br)c(C)cc2OC[C@@H]2CNCCO2)cn1 | 3.86 µM and 0.834 µM | > 10 µM and 5.49 µM
3 | CCN(Cc1cccc(F)c1)c1ccc(CO)c(Cl)c1 | 0.0157 µM | 0.0381 µM
4 | Nc1ccc(C2=NN(c3ccccc3)C(c3ccc(Cl)cc3)C2)cc1 (stereo unspecified) | 1.66 µM | 4.09 µM
5 | Cc1nn(-c2nc3ccccc3[nH]2)c(N)c1-c1ccc(Cl)cc1 | 2.69 µM | > 100 µM
6 | COc1cccc(-c2cc(=O)c3cc(OC)ccc3[nH]2)c1 | 0.982 µM | > 100 µM
7 | C=C1C(=O)O[C@H]2[C@H]1CC/C(COC(=O)CSCCSCC(=O)OC/C1=C/CC[C@@]3(C)O[C@H]3[C@H]3OC(=O)C(=C)[C@@H]3CC1)=C\CC[C@@]1(C)O[C@@H]21 | 1.07 µM | 2.85 µM
8 | CN(C)S(=O)(=O)c1ccc(-c2nc(C(Cl)Cl)nc3cc(-c4ccc(F)cc4)nn23)cc1 | 1.63 µM | 4.64 µM
9 | CCOC(=O)N1CCN(c2nc(Nc3cc(C)[nH]n3)c3ccccc3n2)CC1 | 1.8 µM | 8.42 µM
10 | Fc1ccc2[nH]cc(-c3nonc3-c3c[nH]c4ccc(Br)cc34)c2c1 | 1.94 µM | 4.72 µM
11 | O=C(CO[N+](=O)[O-])Nc1ccc(C(=O)/C=C/c2ccc(Cl)cc2)cc1 | 2.06 µM | 5.07 µM
12 | CCC[CH2][Sn]([CH2]CCC)([CH2]CCC)[O]c1ccc(Cl)cc1Cl | 0.105 µM | 0.25 µM
13 | O=c1c(Oc2ccc(F)cc2F)cc2cnc(NC3CCOCC3)nc2n1CCCO | > 25 µM | > 25 µM
14 | Cc1ccc(C)c2c1C(O)(C#Cc1ccccc1)c1ccccc1C2(O)C#Cc1ccccc1 (stereo unspecified) | 3.57 µM | > 100 µM
15 | S=C(Nc1ccc(Br)cc1)Nc1ccc(Br)cc1 | 2.26 µM | 14 µM
16 | COc1ccc(C(=O)/C=C/c2ccc(C)cc2)cc1OC | 11.4 µM | 24.6 µM
17 | CN(C)CCCOc1ccc(-c2ccc3ncc4c(c3c2)n(C2CCOCC2)c(=O)n4C)cn1 | 2.08 µM | 15.7 µM
18 | COc1cc(NC(N)=NCCC(C)(C)Oc2ccc(C(F)(F)F)cc2)ncc1C#N | 1.07 µM | 2.44 µM
19 | O=S(=O)(Nc1ccccc1Cl)c1ccc(-c2cnc(C3CC3)o2)cc1 | 0.236 µM | 6.91 µM
20 | CN[C@H]1C=C[C@@H]2/C=C(C)/C=C/[C@@H](C)[C@H]([C@H](C)[C@H](O)[C@@H](C)NC(C)=O)OC(=O)/C=C/C=C(C)\C=C\[C@]2(C)C1 | < 0.001 µM and 0.0049 µM | –
21 | COc1cc(OC)cc(N(CCNC(C)C)c2ccc3ncc(-c4cnn(C)c4)nc3c2)c1 | 3.07 µM | 13 µM

Row | SMILES | GI50 | TGI
22 | COC(=O)CCC(=O)NC1=C(Nc2ccc(OC)cc2)C(=O)c2ccccc2C1=O | 3.09 µM | 12.2 µM
23 | CCc1cccc(C)c1NC(=O)c1sc2nc3c(cc2c1N)CCCCC3 | 4.18 µM | > 100 µM
24 | COC(=O)[C@@H](C)C[C@H](Cc1ccccc1)NC(=O)c1csc(CC[C@H](C(C)C)N(C)C(=O)[C@@H](NC(=O)[C@H]2CCCCN2C)C(C)C)n1 | 0.0689 µM | 0.275 µM
25 | CCOC(=O)c1sc(-c2ccc(OS(=O)(=O)c3ccc(Br)s3)c(C=O)c2)nc1C | 2.96 µM | 9.2 µM
26 | CNC(=O)c1ccc(N2CCN(Cc3ccc4nc(C)c(=O)[nH]c4c3F)CC2)c(F)n1 | 27.8 µM | > 100 µM
27 | OCc1ccc(-c2ccc(-c3ccc(CO)o3)[se]2)o1 | 0.219 µM | 0.704 µM
28 | Cc1ccc(-c2csc(/N=C3\C(=O)Nc4ccccc43)n2)cc1 | 1.46 µM | 3.51 µM
29 | O=C(Nc1cccc(-n2ccc3c(NC(=O)c4ccccc4)nccc32)c1)Nc1cc(C(F)(F)F)cc(C(F)(F)F)c1 | 1.55 µM | 13.6 µM
30 | Cn1cc(C2=C(c3cn(CCCCN)c4ccccc34)C(=O)NC2=O)c2ccccc21 | > 25 µM | > 25 µM
31 | Cc1nc(SCC(=O)Nc2nc(-c3ccc(Cl)cc3)cs2)n(Nc2ccccc2)c1C | 1.45 µM | 6.27 µM
32 | COC(=O)CCc1c[nH]c2ccc(N(CCCl)CCCl)cc12 | 0.311 µM | 1.81 µM
33 | COc1cc(/C=C2\C(=O)Nc3cc(C)c(O)cc32)cc(OC)c1OC | 1.5 µM | 5.88 µM
34 | CCCNNC(=O)/C=C/c1ccc(CNCCc2c(C)[nH]c3ccccc23)cc1 | 0.0279 µM | 0.529 µM
35 | COc1cc(-c2cc3ncccc3c3nc(N)c4cccnc4c23)cc(OC)c1OC | 0.555 µM | 66.8 µM
36 | CC[N+](CC)=c1sc2c(s1)C(c1ccc(Cl)cc1)Oc1ccc(Cl)cc1-2 (stereo unspecified) | 1.4 µM | 4.12 µM
37 | COC(=O)c1c2c(c[n+]([O-])c1C)C(=O)C=CC2=O | 0.914 µM | 3.01 µM
38 | C#CCOc1cccc(-c2ncnc3cc(NC(=O)CCl)ccc23)c1 | 1.45 µM | 3.54 µM
39 | FC(F)c1nc2ccccc2n1-c1nc(N2CCOCC2)nc(N2CCOCC2)n1 | 0.135 µM and 0.124 µM | 0.971 µM and 0.607 µM
40 | COc1ccc(-c2cn[nH]c2-c2cc(OC)c3c(c2)OCO3)cc1 | 0.152 µM | 0.733 µM
41 | CO[C@H]1/C=C/O[C@@]2(C)Oc3c(C)c(O)c4c(c3C2=O)C(=O)C(/C=N/N(c2ccccc2)c2ccccc2)=C(NC(=O)/C(C)=C\C=C\[C@H](C)[C@H](O)[C@@H](C)[C@@H](O)[C@@H](C)[C@H](OC(C)=O)[C@@H]1C)C4=O | 2.09 µM | 4.69 µM

Reference: PubChem BioAssay (NCI)
